# Columns and labels:
# Format in all cases: in vivo, human
# [1] = test system: ambulant boys aged 4 to <7 years with DMD; test: VISION-DMD Phase 2b study VBP15-004, efficacy at 24 weeks
# Experimental: The second period of 24 weeks, where all participants receive vamorolone treatment on either of the two dose levels, will continue to capture additional longer-term safety and tolerability data.
# The study met its primary endpoint of superiority in the change of time to stand from supine positioning to standing (TTSTAND) velocity with vamorolone 6 mg/kg/day versus placebo (p=0.002) with a treatment difference of 0.06 [95% CI: 0.02-0.10] rises/second from baseline. […] Any number p<0.05 is considered significant.
# [2] = VBP15-002 multiple ascending dose trial, PK and safety
# Experimental: Vamorolone clinical studies have been conducted in adult male volunteers and boys with DMD, a disorder in which skeletal muscle is in a chronic inflammatory state. Two consecutive open-label dose-ranging studies in 48 DMD patients aged 4 to <7 years (corticosteroid-naïve) were conducted (Phase IIa, VBP15-002; Phase IIa, VBP15-003). Doses were tested over a 24-fold dose range (0.25, 0.75, 2.0, and 6.0 mg/kg/day), with 12 participants per group. The first multiple ascending dose (MAD) cohort trial-tested pharmacokinetics (PK) and safety for 2 weeks of drug dosing followed by a 2-week washout (VBP15-002). […] All DMD participants completed the MAD study and then continued on the same dose for a 24-week dose-finding (efficacy and safety) extension study (VBP15-003).
# VBP15-002 (Phase IIa; two weeks on the drug, two weeks off drug) enrolled 48 corticosteroid-naïve participants with DMD, and all 48 participants completed the study and enrolled into VBP15-003 (Phase IIa extension; 24-week treatment). Forty-six of 48 participants completed the VBP15-003 study (2 participants withdrew from VBP15-003 for reasons unrelated to the study drug). In addition, all participants (46/46) opted to enroll in the 24-month long-term extension study, VBP15-LTE.
# [3] = test system: boys with DMD; test: CINRG 12-month prednisone clinical trial, external comparator; details: vamorolone 18-month treatment versus prednisone trial 12-month treatment
# Experimental: As with the CINRG DNHS comparators, group-matching criteria were prespecified in the iSAP, and 2 independent statisticians carried out the participant matching. […] There was no corresponding 12-month assessment in vamorolone-treated participants. (Assessments of vamorolone-treated trial participants were 0, 3, 6, and 18 months).
# Participants in the corticosteroid-treated CINRG DNHS group were treated for at least 18 months, but the total duration, dose, and regimens varied.
# [4] = test system: participants with DMD; test: CINRG DNHS corticosteroid-treated external comparator; details: vamorolone versus corticosteroid-treated DNHS, 18 months
# Source text: The consecutive vamorolone trials (VBP15-002, VBP15-003, VBP15-LTE) were open-label with no placebo comparator. Corticosteroid-naïve and corticosteroid-treated DMD participant comparators were group-matched participants from the CINRG DNHS (NCT00468832). The CINRG DNHS was an observational, prospective case-control study of 551 participants (440 with DMD, 111 healthy peers). For group matching between vamorolone-treated participants and CINRG DNHS participants, prespecified criteria were defined for matching within the interim statistical analysis plan (iSAP). Age-matched CINRG DNHS participants included those continuously corticosteroid-naïve over an 18-month period (n=19) or continuously corticosteroid-treated over an 18-month period (n=68). For the 68 corticosteroid-treated participants, as this was an observational cohort, corticosteroid doses and regimens varied based on clinician discretion. Although all 68 participants were treated for 18 months continuously, the age at initiation of corticosteroids varied. Thus, the total duration of corticosteroid treatment was longer than 18 months for most participants. […]
# The incidences of physician-reported AEs typically for corticosteroid treatment were determined for participants that had been treated with vamorolone 6.0 mg/kg/day (for any duration), taken from the March 2019 Data Safety Update Report (DSUR) (pharmacovigilance report). […]
# [5] = test system: participants with DMD; test: Physician-reported adverse events in vamorolone trials (DSUR, DSMB report)
# Experimental: Study visits took place quarterly, including assessment of clinical laboratory results, vital signs, and AEs. All AEs were coded using the Medical Dictionary for Regulatory Activities (MedDRA version 19.0) system for reporting (preferred term and system organ class). Clinical efficacy assessments were performed at baseline of the VBP15-002 study, at six months (end of VBP15-003 study), and the 12-month midpoint visit of the VBP15-LTE study.
# A Data and Safety Monitoring Board report on the VBP15-LTE study covering all participants enrolled in the VBP15-LTE study (inclusive beyond the 12-month midpoint assessment) included three serious AEs (2 myoglobinuria events [in the same participant] and one pneumonia), all deemed unrelated to study drug. For all reported TEAEs, 402 were deemed unrelated to vamorolone, 37 were deemed remotely related, 29 were deemed possibly related, 11 were deemed probably related, and three were deemed definitely related. Of the 14 AEs probably and definitely related to vamorolone, 10 were weight gain, 2 were increased appetite, 1 was Cushingoid features, and 1 was irritability.
# The incidences of physician-reported AEs typically for corticosteroid treatment were determined for participants that had been treated with vamorolone 6.0 mg/kg/day (for any duration), taken from the March 2019 Data Safety Update Report (DSUR) (pharmacovigilance report). Incidence rates of Cushingoid features, weight gain, hirsutism, and behavior change were studied (Table 8).
# [6] = test system: ambulant boys aged 4 to <7 years with DMD; test: VBP15-004 bone turnover biomarkers; details: for CTX, difference vs. prednisone / Osteocalcin, difference vs. prednisone / P1NP, difference vs. prednisone: Week 24
# [7] = 6.0 mg/kg/day vamorolone for any duration, n = 38
# [8] = VBP15-LTE, DSMB report, all participants
structure (smiles),measurement,setting,value
"C[C@@H]1C[C@H]2[C@@H]3CCC4=CC(=O)C=C[C@]4(C)C3=CC[C@]2(C)[C@@]1(O)C(=O)CO [Vamorolone, 17α,21-dihydroxy-16α-methylpregna-1,4,9(11)-triene-3,20-dione]",TTSTAND after treatment (baseline 6.0 seconds),[1]; vamorolone 6 mg/kg/day,4.6 s
same,"TTSTAND velocity, treatment difference versus placebo in change from baseline",[1]; vamorolone 6 mg/kg/day,0.06 rises/second
same,"difference between vamorolone and prednisone across TTSTAND, 6MWT, TTRW endpoints",[1]; vamorolone 6 mg/kg/day vs prednisone 0.75 mg/kg/day,no statistically significant differences
same,dose-limiting toxicities,"[2]; 0.25-6.0 mg/kg/day, 2 weeks dosing",no dose-limiting toxicities
same,drug accumulation,[2]; day 1 vs day 14,no drug accumulation
same,half-life,"[2]; male, human, in vivo, oral, DMD patients aged 4 to <7 years, 0.25-6.0 mg/kg/day, 2 weeks dosing",~2 h
same,"Mean height percentile for age, LS mean difference (SE), ANCOVA",[3],10.37 percentile
same,"Mean height percentile for age, LS mean difference (SE), ANCOVA",[4],15.86 percentile
same,Incidence of physician-reported Cushingoid,[5]; [7],2.6%
same,Incidence of physician-reported behavior change,[5]; [7],0%^2
same,Incidence of physician-reported hypertrichosis/hirsutism,[5]; [7],0%
same,Incidence of physician-reported weight gain,[5]; [7],13.2%
same,"Cushingoid features among the 14 AEs probably and definitely related, number","[5]; VBP15-LTE, DSMB report",1
same,"increased appetite among the 14 AEs probably and definitely related, number","[5]; VBP15-LTE, DSMB report",2
same,"irritability among the 14 AEs probably and definitely related, number","[5]; VBP15-LTE, DSMB report",1
same,"weight gain among the 14 AEs probably and definitely related, number","[5]; VBP15-LTE, DSMB report",10
same,"TEAEs deemed definitely related, number",[5]; [8],three
same,"TEAEs deemed possibly related, number",[5]; [8],29
same,"TEAEs deemed probably related, number",[5]; [8],11
same,"TEAEs deemed remotely related, number",[5]; [8],37
same,"TEAEs deemed unrelated to vamorolone, number",[5]; [8],402
same,"serious AEs, number","[5]; VBP15-LTE, DSMB report, all deemed unrelated to study drug",three
same,"Osteocalcin, mean (SEM) change at Week 24",[6]; Vamorolone 2.0 mg (N = 17),8.3 (3.1) ng/ml
same,"Procollagen 1 N-Terminal Propeptide (P1NP), mean (SEM) change at Week 24",[6]; Vamorolone 2.0 mg (N = 17),48 (27) ng/mL
same,"Type I Collagen C-Telopeptides (CTX), mean (SEM) change at Week 24",[6]; Vamorolone 2.0 mg (N = 17),177 (52) pg/mL
same,"CTX, difference vs. prednisone",[6]; Vamorolone 2.0 mg,477 (p < 0.001) pg/mL
same,"Osteocalcin, difference vs. prednisone",[6]; Vamorolone 2.0 mg,23.5 ng/mL
same,"P1NP, difference vs. prednisone",[6]; Vamorolone 2.0 mg,182 ng/mL
same,"Osteocalcin, mean (SEM) change at Week 24",[6]; Vamorolone 6.0 mg (N = 23),1.7 (2.8) ng/ml
same,"Procollagen 1 N-Terminal Propeptide (P1NP), mean (SEM) change at Week 24",[6]; Vamorolone 6.0 mg (N = 23),−11 (22) ng/mL
same,"Type I Collagen C-Telopeptides (CTX), mean (SEM) change at Week 24",[6]; Vamorolone 6.0 mg (N = 23),90 (44) pg/mL
same,"CTX, difference vs. prednisone",[6]; Vamorolone 6.0 mg,390 (p < 0.001) pg/mL
same,"Osteocalcin, difference vs. prednisone",[6]; Vamorolone 6.0 mg,16.9 ng/mL
same,"P1NP, difference vs. prednisone",[6]; Vamorolone 6.0 mg,124 (p < 0.001) ng/mL
